Reference: patent US8221773B2, “Hydrogels and uses thereof” (University of Delaware, priority 2004, dated 2012)
“Also recorded” adds a separate entry of the source. Where no end group is shown, it is not given here.

What was measured:
[1] = Temperature dependent CD: temperature at which folding and self-assembly is triggered (Tgel); assay type: physicochemical; conditions: pH 9 and low (20 mM) salt
Source text: At low temperature MAX1 is unfolded (and unassembled). At high temperature MAX1 folds into beta-sheet (and consequently self-assembles into a hydrogel). […] The relative hydrophobicity is MAX1>MAX2>MAX3 due to the isostructural but less hydrophobic substitutions of threonine for valine at the underlined positions. The most hydrophobic folds at the lowest temperature while the least hydrophobic folds at the highest temperature. This is a direct manifestations of the molecular parameter manipulations described in FIG. 2. Also shown are the calculated free energy of transfer of each corresponding unfolded peptide having an overall +8 charge state from octanol into water at 25° C. MAX1, the most hydrophobic has the highest free energy of transfer equal to 7.60 kcal/mol. MAX2 has a calculated transfer free energy of 6.88 kcal/mol, while the least hydrophobic MAX3 has the lowest energy of transfer of 6.45 kcal/mol.
This allows the characteristics of the hydrogels of the invention to be varied by adjusting these parameters. […] It is well known that water is better able to solvate hydrophobic groups at low temperatures. This phenomenon has been used to describe the cold denaturation of proteins where some proteins unfold at low temperatures, exposing their hydrophobic interiors to aqueous solvent. A 150 μM aqueous solution of MAX1 unfolds when cooled below room temperature. The CD spectrum at 5° C. is consistent with random coil conformation, FIG. 9A. However, warming the solution to 40° C. results in a spectra consistent with β-sheet structure. […] In fact, previous studies involving the pH induced folding and self-assembly of MAX1 were performed at 20° C. At this temperature, folding and self-assembly are slow enough to be conveniently monitored. At higher temperatures, folding and self: assembly leading to hydrogelation is fast (instantaneous to seconds depending on concentration). If the formation of hydrophobic interactions affects the folding and self-assembly process, then altering the hydrophobic content of MAX1 should affect the temperature at which folding is triggered. […] MAX2 is identical to MAX1 except that one valine residue has been replaced with the isostructural, but less hydrophobic residue, threonine. In MAX3, two valines are replaced with threonine residues. The resulting peptides vary in their hydrophobicity as evident by comparing calculated free energies of transfer from octanol into water, FIG. 9. […] Thus, the formation of hydrophobic contacts influences folding and self-assembly. […] Thus, the characteristics of the hydrogels of the invention can be varied by adjusting the amino acid residues of the peptides used to form the hydrogels to increase or decrease the hydrophobicity of the amino acid residues used.
There are reports of large polymers that are thermally responsive. The present invention provides the first system that employs temperature triggered folding to induce self-assembly. […] Heating the solution to 80° C. results in a spectra consistent with β-sheet structure. […] The temperatures used in both CD and rheology bracket the temperature (Tgel=60° C., FIG. 9) at which folding and consequent self-assembly is triggered. […] For example, free flowing peptide solutions could be prepared at room temperature and administered in vivo where the temperature of the body could induce gelation. […]

[2] = tested on: fibroblasts (NIH 3T3, mouse); assay: Fibroblast adhesion and proliferation on hydrogel by optical microscopy; assay type: cell-based
Experimental: These cells were used as a model system because of their importance in connective tissue development and their easily distinguished morphology when adhered to the hydrogel scaffold. Qualitative studies were performed in which cells were added to either polystyrene control wells or wells containing a uniform slab (3 mm thick) of MAX1-hydrogel. Cell adhesion was qualitatively monitored via direct observation of cell spreading after four hours from the time of initial cell seeding by optical microscopy (a quantitative cell attachment assay is described below, see also Akiyama, S. K. Functional analysis of cell adhesion: Quantitation of cell-matrix attachment, 2002; Vol. 69, pp 281-296). Non-adhered fibroblasts have rounded morphologies and adhered fibroblasts have spread morphologies Proliferation was measured both qualitatively by optical microscopy and quantitatively by a ^3H thymidine-based cell seeding assay as described below. Hydrogels were prepared in 48 well tissue culture plates by either one of the following protocols. Protocol 1: MAX1 was dissolved in water (resulting in an acidic solution, pH~5) and an equal volume of buffer (pH 9, 250 mM borate, 20 mM NaCl) was added at room temperature to induce folding/self-assembly resulting in a 2 wt % hydrogel. The resulting gel was bathed in DMEM containing 10% calf serum and […] gentamicin. This allowed media to permeate throughout the gel and adjust the pH to 7.3 The storage moduli (rigidity) of gels prepared by protocol 1 are about 1600 Pa. Protocol 2: MAX1 was dissolved in water and an equal volume of serum free DMEM containing […] gentamicin was added to induce folding/self-assembly affording 2 wt % hydrogels. Depending on the experiment, DMEM containing calf serum can then be added to introduce serum proteins. The storage moduli of gels prepared by protocol 2 are about 1200 Pa. […] Proliferation of the cells occurs until confluency is reached, usually around 72 hours if 10^4 cells are initially plated, FIG. 16B. Cells remain viable for at least a month as long as fresh media is provided (we stopped the assay after 1 month). Cells added to control wells containing no gel show similar behavior, FIGS. 16 C and D. In FIGS. 16A-D, cells are plated in the presence of DMEM containing 10% calf serum. Serum proteins may help mediate cellular adhesion to the hydrogel by first coating the scaffold. To determine if the hydrogel scaffold alone is conducive to cell adhesion, cells were plated onto 2 wt. % hydrogels in the absence of serum. […] The incorporation of cell binding epitopes in peptides used in hydrogel formation may be used to enhance cell adhesion in the absence of serum.

Which “transition temperature from random coil to folded β-sheet structure” value [1] does the source give for “VKVKVKVK V^DPPT KVKVKVKV-NH2 (not fully specified (C-terminus)) [MAX1]” here?
The value was “around 25 °C”.

What about the time to confluency ([2]; 2 wt % gel, 10^4 cells initially plated, DMEM with 10% calf serum) of the same sequence?
Its time to confluency is “around 72 hours”.

And the “fibroblast adhesion to gel surface in the presence of serum” value ([2]; 2 wt % gel, DMEM with 10% calf serum, after four hours)?
Its value is “adhered; also recorded: efficiently attached”.

What about the “fibroblast attachment and spreading in the absence of serum, compared to serum containing cultures” value ([2]; 2 wt. % hydrogels, after about four hours) of the same sequence?
Its value is “to a lesser extent; also recorded: less efficiently”.

And the “cell proliferation after addition of serum at four hours” value ([2]; 2 wt. % hydrogels, plated without serum, 72 hours)?
The value was “near confluency”.

And the “time cells remain viable on gel” value ([2]; fresh media provided)?
Its value is ≥ 1 month.
